Experiments:
H4 cells = assay: Assay 1 cell proliferation measurement, H4; assay type: cell-based; details: Homo sapiens; Astrocytoma; read-out: Anti-proliferation IC50 [nM] H4
NCI-H1734 cells = assay: Assay 1 cell proliferation measurement, NCI-H1734; assay type: cell-based; details: Homo sapiens, Lung, read-out: Anti-proliferation IC50 [nM] NCI-H1734
COLO741 cells = assay: Assay 1 cell proliferation measurement, COLO741; assay type: cell-based; details: Homo sapiens, COLO-741; Melanoma; read-out: Anti-proliferation IC50 [nM] COLO741
CAL51 cells = assay: Assay 2 cell proliferation measurement, CAL51; assay type: cell-based; details: Homo sapiens, CAL-51, Breast NS, read-out: Anti-proliferation IC50 [nM] CAL51
Procedure: Cell Proliferation Measurement
The antiproliferative activity of the compounds of the general formula (I) was examined in vitro in human cancer cells. For this purpose, 500 cells, including HeLa cells, A2058 cells, DU145 cells, HMCB cells, IGR37 cells, NCIH1734 cells, OSRC2 cells, or 750 cells, including CAL51 cells, COL0741 cells, DBTRG05MG cells, DKMG cells, G292CLONEA141B1 cells, GB1 cells, HEL cells, HEL9217 cells, JHUEM1 cells, L3.3 cells, LI7 cells, TE4 cells, or 1000 cells, including 8505C cells, HUT78 cells, NCIH1563 cells, NCIH2122 cells, NCIH2172 cells, RVH421 cells, SKMEL3 cells, or 1500 cells, including C32 cells, HS578T cells, JHOM1 cells, NCIH196 cells, OVKATE cells, were plated in 384-well plates with appropriate growth medium and incubated at 37° C. overnight. […] After 72 h, the cells were treated with 20 μl/well of 50% CTG solution in PBS (Promega Cell Titer Glo (catalogue #G755B and G756B)) and incubated at room temperature for 10 min, and luminescence was measured by means of a VICTOR V (Perkin Elmer), in order to determine cell viability at the end of treatment. The percentage effect on cell growth and the IC50 derived therefrom were determined for each test substance using the values from untreated wells (=percent viability). The IC50 values were calculated using a 4-parameter fit.

[1] = system: HEL92.1.7 xenograft (AML); assay: Assay 3 in vivo xenotransplantation model, HEL92.1.7; details: HEL92.1.7 AML xenograft, mice, 40 mg/kg 2QD p.o.; * P < 0.05 vs control
Excerpt: (§1) In Vivo Xenotransplantation Models
(§2) The anti-tumor activities of Compounds of examples 135 and 146 were examined in murine xenotransplantation models of human cancer. For this purpose, mice were implanted subcutaneously with tumor cells. At a mean tumor size of 20-40 mm^2 animals were randomized into treatment and control groups (at least n=10 animals/group) and treatment started with vehicle only or respective Compound (formulation: 90% PEG400/10% Ethanol; application route: per os (“p.o.”), orally). The oral application volume was 10 ml/kg. In the case of twice daily treatments, the time interval between two applications per day was 6-7 h. The tumor size and the body weight were determined at least weekly. The tumor area was detected by means of an electronic caliper [length (mm)×width (mm)]. The experiment was ended when the study reached the pre-determined ethical endpoint based on German and European animal welfare regulations. In vivo anti-tumor efficacy is presented as T/C ratio at study end (Treatment/Control; mean tumor weight of treatment group/mean tumor weight of control group) in Table 8. A compound having a T/C below 0.5 is defined as active (i.e., effective). Statistical analysis was assessed using SigmaStat software. A one-way analysis of variance was performed and differences to the control were compared by a pair-wise comparison procedure (Dunn's method).

[2] = system: HeLa xenograft (Cervical cancer); assay: Assay 3 in vivo xenotransplantation model, HeLa; details: mice, 5 mg/kg 2QD p.o., * P < 0.05 vs control
Excerpt: as §1, §2

Question: Which results are given for `O=C1NN=C(c2ccc(-c3ccc(F)cc3)c(C(F)(F)F)c2)CO1` [Example 3, 5-[4′-Fluoro-2-(trifluoromethyl)biphenyl-4-yl]-3,6-dihydro-2H-1,3,4-oxadiazin-2-one]?
Answer: IC50 (H4 cells): 25 nM; IC50 (NCI-H1734 cells): 13 nM

Question: For `C[C@@H]1OC(=O)NN=C1c1ccc(-c2ccc(F)cc2)c(C(F)(F)F)c1` [Example 135, (6S)-5-[4′-Fluoro-2-(trifluoromethyl)biphenyl-4-yl]-6-methyl-3,6-dihydro-2H-1,3,4-oxadiazin-2-one], which IC50 (COLO741 cells) is on record?
Answer: The IC50 was 1 nM.

Question: For `O=C1NN=C(c2ccc(-c3cnn(C(F)F)c3)c(C(F)(F)F)c2)CO1` [Example 146, 5-{4-[1-(Difluoromethyl)-1H-pyrazol-4-yl]-3-(trifluoromethyl)phenyl}-3,6-dihydro-2H-1,3,4-oxadiazin-2-one], which IC50 (CAL51 cells) is on record?
Answer: Its IC50 is 37 nM.

Question: And the “T/C (mean final tumor weight treatment / control)” value [1]?
Answer: Its value is 0.08*.

Question: And the “T/C (mean final tumor weight treatment / control)” value [2]?
Answer: The value was 0.08*.

Reference: patent US11427553B2, “Dihydrooxadiazinones” (Bayer Aktiengesellschaft, priority 2017, dated 2022)
